According to paper PMC4331153, “In Vitro Inhibitory and Cytotoxic Activity of MFM 501, a Novel Codonopsinine Derivative, against Methicillin-Resistant Staphylococcus aureus Clinical Isolates” (BioMed Research International, 2015):
Values after ≈ are worked out from the molar mass of the structure shown. Like-named read-outs stand apart in the source and are kept apart here.

Key:
Type in all cases: cell-based
[1] = tested on: S. aureus ATCC 33591 (MRSA reference strain); test: MIC determination, broth microdilution, ATCC 33591; conditions: Staphylococcus aureus
S. aureus isolate U949 = test: MIC determination, broth microdilution, isolate U949; conditions: Staphylococcus aureus
S. aureus isolate N441 = test: MIC determination, broth microdilution, isolate N441; conditions: Staphylococcus aureus
[2] = tested on: S. aureus ATCC 25923 (MSSA reference strain); test: MIC determination, broth microdilution, ATCC 25923; conditions: Staphylococcus aureus
[3] = tested on: S. aureus isolates (MRSA and MSSA); test: MIC determination, S. aureus isolates (MRSA and MSSA); conditions: Staphylococcus aureus, ATCC 25923 / ATCC 33591 / MRSA / MSSA; all four test isolates (N441, U949, ATCC 25923, ATCC 33591), preliminary evaluation

MIC ([1]; ATCC 33591, read-out: MIC) [µg/mL]	MIC (S. aureus isolate U949; isolate U949, read-out: MIC) [µg/mL]	MIC (S. aureus isolate N441; isolate N441, read-out: MIC) [µg/mL]	MIC ([2]; ATCC 25923, read-out: MIC) [µg/mL]	MIC [3] [µg/mL]	SMILES	MIC [1] [µg/mL]	MIC (S. aureus isolate U949) [µg/mL]	MIC (S. aureus isolate N441) [µg/mL]	MIC [2] [µg/mL]
125 (≈ 464 µM)	125 (≈ 464 µM)	125 (≈ 464 µM)	250 (≈ 928 µM)	125 to 250 (≈ 464 to 928 µM)	CCCCCCC1C(C(=O)OCC)=C(O)C(=O)N1C (stereo not drawn) [16e]				
500 (≈ 1820 µM)	500 (≈ 1820 µM)	500 (≈ 1820 µM)	1000 (≈ 3630 µM)	500 to 1000 (≈ 1820 to 3630 µM)	CCOC(=O)C1=C(O)C(=O)N(C)C1c1ccc(C)cc1 (stereo not drawn) [compound 19e]				

Further lines, the molecule ahead of its results:

SMILES	MIC ([1]; ATCC 33591, read-out: MIC) [µg/mL]	MIC (S. aureus isolate U949; isolate U949, read-out: MIC) [µg/mL]	MIC (S. aureus isolate N441; isolate N441, read-out: MIC) [µg/mL]	MIC ([2]; ATCC 25923, read-out: MIC) [µg/mL]	MIC [3] [µg/mL]	MIC [1] [µg/mL]	MIC (S. aureus isolate U949) [µg/mL]	MIC (S. aureus isolate N441) [µg/mL]	MIC [2] [µg/mL]
CCOC(=O)C1=C(O)C(=O)N(Cc2ccccc2)C1c1ccc(OC)cc1 (stereo not drawn) [26e]	125 (≈ 340 µM)	250 (≈ 680 µM)	125 (≈ 340 µM)	250 (≈ 680 µM)	125 to 250 (≈ 340 to 680 µM)				
C=CCOc1ccc(C2C(C(=O)OCC)=C(O)C(=O)N2C)cc1 (stereo not drawn) [27e]	> 1000	> 1000	> 1000	> 1000					
Cc1onc(-c2ccccc2)c1C(=O)N[C@@H]1C(=O)N2[C@@H]1SC(C)(C)[C@@H]2C(=O)O [Oxacillin, reference compound]	250 (≈ 623 µM)	500 (≈ 1250 µM)	500 (≈ 1250 µM)	0.24 (≈ 0.598 µM)					
CN[C@H](CC(C)C)C(=O)N[C@H]1C(=O)N[C@@H](CC(N)=O)C(=O)N[C@H]2C(=O)N[C@H]3C(=O)N[C@H](C(=O)N[C@H](C(=O)O)c4cc(O)cc(O)c4-c4cc3ccc4O)[C@H](O)c3ccc(c(Cl)c3)Oc3cc2cc(c3O[C@@H]2O[C@H](CO)[C@@H](O)[C@H](O)[C@H]2O[C@H]2C[C@](C)(N)[C@H](O)[C@H](C)O2)Oc2ccc(cc2Cl)[C@H]1O [Vancomycin, reference compound]						3.13 (≈ 2.16 µM)	1.56 (≈ 1.08 µM)	1.56 (≈ 1.08 µM)	0.78 (≈ 0.538 µM)
